From the METLIN SMRT retention time set (Domingo-Almenara et al. 2019)

Assay: gradient 5% acetonitrile 3 min, to 50% in 2 min, to 85% in 15 min, held 3 min, 100 µL/min
Conditions: column: Zorbax Extend-C18 2.1 x 50 mm; eluents: water / acetonitrile, 0.1% formic acid
Outline: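 Over 3 months, pure standards in mixtures of ~100 molecules were run by HPLC coupled to a quadrupole time-of-flight mass spectrometer in positive and negative ionization mode. The column was a Zorbax Extend-C18 (2.1 × 50 mm, 1.8 μm) at 100 μL/min, eluted with water and acetonitrile each holding 0.1% formic acid, with 40 μL dead and 900 μL dwell volumes. Retention time was determined from adduct peaks chosen by software and checked manually.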

RP-LC retention time | SMILES
860 s | CSc1cccc(NS(=O)(=O)c2cc3c(s2)CCN(C(=O)C2CC2)C3)c1
808 s | Cc1cc(Cl)ccc1S(=O)(=O)N1CC(Cc2nncn2C2CCCC2)C1
943 s | CCOc1ccc(C(=O)NCc2c(-c3ccccc3)nc3sc(CC)nn23)cc1
758 s | Cc1cc(C)cc(NC(=O)Cn2cc(C(=O)N3CCCC3)c(=O)c3ccc(C)nc32)c1
582 s | COc1ccc(CC(=O)NCC2(CO)CC2)cc1OC
827 s | NC(=O)c1cc2c(s1)N(CC1CC1)CCCC2
567 s | COCCCNC(=O)c1ccc2nc(CCc3ccc(NC(C)=O)cc3)[nH]c2c1
800 s | COc1ccc2c(c1)C=C(C(=O)NCCc1c[nH]c3ccc(OC)cc13)CO2
593 s | O=C(O)C1CCCCC1C(=O)NCCc1csc(-c2cccnc2)n1 (configuration not stated)
702 s | O=C(O)c1ccccc1-c1c2ccc(=O)c(O)c-2oc2c(O)c(O)ccc12
819 s | COCc1cc(=O)n(CC(=O)N2CCN(c3ccc(F)cc3)CC2)c(N2CCOCC2)n1
592 s | CCOCCCNC(=O)C1Cn2cccc2C(=O)N1 (configuration not stated)
814 s | Cc1ccc(-n2cc3c(N4CCCC(C(=O)NC(C)c5ccc(C)cc5C)C4)ncnc3n2)cc1 (configuration not stated)
1070 s | Cc1ccc(-c2nc3cnccn3c2Nc2ccc(C)cc2C)cc1
840 s | O=C1CCc2cc(S(=O)(=O)NCCc3ccccc3)cc3c2N1CCC3
729 s | CCOC(=O)c1nc(NCCN2CCCc3ccccc32)c2ccccc2n1
717 s | C[C@H]1CN(C(=O)c2ccc(C#N)cc2)C[C@@H]1c1nc(-c2ccncc2)no1
1240 s | Cc1nn(-c2ccc(F)cc2)c2nc(N3CCCC(C(=O)NC4CCCCCC4)C3)sc12 (configuration not stated)
570 s | COCCN1CCC(N2CCN(S(=O)(=O)c3ccc(F)cc3F)CC2)C1=O (configuration not stated)

RP-LC retention time | SMILES
955 s | CCCCS(=O)(=O)c1cc2c(cc1NC(=O)c1ccc(C)cc1)n(C)c(=O)n2C
745 s | COc1ccc(F)cc1S(=O)(=O)N1CCC(C(=O)Nc2cc(C)on2)CC1
1160 s | O=C(Nc1nc(-c2ccc3ccccc3c2)cs1)c1ccc2c(c1)OCO2
843 s | COCCN1C(=O)c2ccccc2C(C(=O)NC2CCCC2)C1c1cccs1 (configuration not stated)
850 s | O=C(CN1C(=O)CCC1=O)Nc1nc(-c2ccc(Cl)cc2Cl)cs1
1100 s | CCc1cc(-c2csc(S(=O)(=O)Nc3ccc(C(C)C)cc3)c2)on1
1310 s | Cc1ccc(-c2noc(Cc3nc(-c4ccc(F)cc4)cs3)n2)cc1
651 s | COCCNC(=O)C1CCc2sc(C(=O)N3CCCCC3)cc2C1 (configuration not stated)
553 s | COc1ccc2c(c1)c(CN1CCC(C(=O)NCCN3CCOCC3)CC1)cn2C
737 s | COc1ccc(CCC(=O)Nc2cnn(-c3ncc(N(C)C)cn3)c2)cc1
777 s | Cc1noc(C2CN(C(=O)Nc3ccc4c(c3)CCC4)CC23CCOCC3)n1 (configuration not stated)
824 s | Cn1ccc(C(=O)N2CCCC2c2ccc(Cl)cc2)n1 (configuration not stated)
859 s | O=c1c2cc(-c3ccc(F)cc3)nn2ccn1CC(O)c1ccc(F)cc1 (configuration not stated)
1020 s | Cc1nc(-c2ccc(S(=O)(=O)N3CCc4ccccc4C3)cc2)co1
662 s | CN(CCCNC(=O)c1sc2ncccc2c1-n1cccc1)Cc1ccccc1
884 s | COc1ccc(CN2C(=O)CSc3c(c4ccccc4n3C)C2C(=O)NCCCOC(C)C)cc1 (configuration not stated)
579 s | CCN1CCN(CCNC(=O)CCCn2c3ccccc3c3cnn(C)c(=O)c32)CC1
752 s | CC(C)NC(=O)C1CCN(c2nc3ccc(-c4ccc(F)cc4)nc3s2)CC1
